Experimental data: the supplement of paper PMC13380429

Columns and labels:
Conditions in all cases: 72 h
Caco-2 [1] = experiment: cell viability relative to DMSO; higher = less toxic
Calu-3 [2] = experiment: as above
HepG2 [3] = experiment: as above
U2OS [4] = experiment: as above
Caco-2 [5] = experiment: relative viability EC50 (midpoint between 100% and the lowest measured viability); higher = less toxic
Calu-3 [6] = experiment: as above
HepG2 [7] = experiment: as above
U2OS [8] = experiment: as above
Caco-2 [9] = experiment: drug sensitivity score (DSS) for viability; higher = more toxic; extreme values may be limits of the assay
Calu-3 [10] = experiment: as above
HepG2 [11] = experiment: as above
U2OS [12] = experiment: as above
Vero E6 [13] = experiment: cell viability relative to DMSO; higher = less toxic
Vero E6 [14] = experiment: relative viability EC50 (midpoint between 100% and the lowest measured viability); higher = less toxic
Vero E6 [15] = experiment: drug sensitivity score (DSS) for viability; higher = more toxic; extreme values may be limits of the assay

| SMILES | cell viability (Caco-2 [1]; 1 nM) | cell viability (Caco-2 [1]; 10 nM) | cell viability (Caco-2 [1]; 100 nM) | cell viability (Caco-2 [1]; 1000 nM) | cell viability (Caco-2 [1]; 10000 nM) | cell viability (Calu-3 [2]; 1 nM) | cell viability (Calu-3 [2]; 10 nM) | cell viability (Calu-3 [2]; 100 nM) | cell viability (Calu-3 [2]; 1000 nM) | cell viability (Calu-3 [2]; 10000 nM) | cell viability (HepG2 [3]; 1 nM) | cell viability (HepG2 [3]; 10 nM) | cell viability (HepG2 [3]; 100 nM) | cell viability (HepG2 [3]; 1000 nM) | cell viability (HepG2 [3]; 10000 nM) | cell viability (U2OS [4]; 1 nM) | cell viability (U2OS [4]; 10 nM) | cell viability (U2OS [4]; 100 nM) | cell viability (U2OS [4]; 1000 nM) | cell viability (U2OS [4]; 10000 nM) | relative viability EC50 (Caco-2 [5]) | relative viability EC50 (Calu-3 [6]) | relative viability EC50 (HepG2 [7]) | relative viability EC50 (U2OS [8]) | drug sensitivity score (Caco-2 [9]) | drug sensitivity score (Calu-3 [10]) | drug sensitivity score (HepG2 [11]) | drug sensitivity score (U2OS [12]) | cell viability (Vero E6 [13]; 1 nM) | cell viability (Vero E6 [13]; 10 nM) | cell viability (Vero E6 [13]; 100 nM) | cell viability (Vero E6 [13]; 1000 nM) | cell viability (Vero E6 [13]; 10000 nM) | relative viability EC50 (Vero E6 [14]) | drug sensitivity score (Vero E6 [15]) |
| --- | --- | --- | --- | --- | --- | --- | --- | --- | --- | --- | --- | --- | --- | --- | --- | --- | --- | --- | --- | --- | --- | --- | --- | --- | --- | --- | --- | --- | --- | --- | --- | --- | --- | --- | --- |
| Cc1nnc2ccc(-c3cccc(C(F)(F)F)c3)nn12 | 92.5% | 97.3% | 107% | 97.6% | 87.9% | 99.5% | 111% | 95% | 101% | 91.2% | 107% | 102% | 107% | 90.4% | 108% | 99.1% | 98.8% | 94.3% | 99.4% | 94.5% | > 10 µM | > 10 µM | > 10 µM | > 10 µM | 0.2 | 0 | 0 | 0 |  |  |  |  |  |  |  |
| CN(c1nccc(=O)[nH]1)C1CCN(c2nc3ccccc3n2Cc2ccc(F)cc2)CC1 [mizolastine] | 89.5% | 99.9% | 98% | 100% | 98.3% | 103% | 104% | 99.5% | 102% | 108% |  |  |  |  |  | 101% | 98.5% | 101% | 103% | 102% | > 10 µM | > 10 µM |  | > 10 µM | 0 | 0 |  | 0 | 97.5% | 101% | 98.6% | 97.8% | 107% | > 10 µM | 0 |
| CCn1c(-c2nonc2N)nc2cnc(Oc3cccc(NC(=O)c4ccc(OCCN5CCOCC5)cc4)c3)cc21 | 94.9% | 98% | 94.9% | 97.8% | 67.7% | 97.9% | 123% | 144% | 131% | 125% | 96.6% | 107% | 114% | 80.4% | 52.4% | 97.5% | 98.6% | 91.4% | 78.5% | 62.1% |  | > 10 µM |  |  | 1.8 | 0 | 5.1 | 4.4 | 96.5% | 99.3% | 88.9% | 72.2% | 72.1% |  | 5.9 |
| c1nc(CC2CCNCC2)c[nH]1 [immepip] | 113% | 101% | 98.6% | 98.8% | 102% | 96.7% | 91.6% | 111% | 111% | 99.9% | 108% | 107% | 103% | 111% | 95.7% | 98.1% | 99.8% | 97.2% | 93.3% | 97.9% | > 10 µM | > 10 µM | > 10 µM | > 10 µM | 0 | 0 | 0 | 0 |  |  |  |  |  |  |  |
| [I-].[K+] [potassium-iodide] |  |  |  |  |  | 99.9% | 111% | 96.2% | 102% | 95.1% |  |  |  |  |  |  |  |  |  |  |  | > 10 µM |  |  |  | 0 |  |  | 102% | 99.7% | 103% | 101% | 106% | > 10 µM | 0 |
| CCn1nc(C2CCN(C(=O)CCO)CC2)nc1-c1cnc(N)c(-c2nnc(C(C)(C)C)o2)n1 [AZD8835] | 94.1% | 93.6% | 91.3% | 86.6% | 64.3% | 102% | 96.3% | 99.1% | 81.4% | 41.8% | 101% | 101% | 95.1% | 78.7% | 64% | 102% | 97.5% | 99% | 85.2% | 70.5% |  | 1.35 µM |  |  | 3.2 | 5.9 | 4.1 | 2.8 | 96.9% | 97.9% | 93.7% | 96% | 70% |  | 2 |
| COc1ccc(OC)c(C(O)C(C)N)c1 (stereo unspecified) [methoxamine] |  |  |  |  |  | 93.7% | 99.6% | 103% | 100% | 109% |  |  |  |  |  |  |  |  |  |  |  | > 10 µM |  |  |  | 0 |  |  | 109% | 107% | 99.4% | 102% | 102% | > 10 µM | 0 |
| COc1cc2c(cc1OC)[C@@H]1Cc3ccc(OC)c(OC)c3CN1CC2 [rotundine] | 102% | 98.1% | 94.8% | 109% | 91% | 103% | 108% | 99.8% | 101% | 89.2% |  |  |  |  |  |  |  |  |  |  | > 10 µM | > 10 µM |  |  | 0 | 0 |  |  |  |  |  |  |  |  |  |
| C[C@H](N)C(=O)O [L-alanine] | 102% | 96.6% | 99.4% | 106% | 105% | 102% | 94.3% | 99.6% | 106% | 84.2% |  |  |  |  |  | 94.5% | 102% | 104% | 105% | 96.3% | > 10 µM | > 10 µM |  | > 10 µM | 0 | 0.2 |  | 0 | 104% | 103% | 106% | 98.9% | 104% | > 10 µM | 0 |
| CCCCCCNC(=O)n1cc(F)c(=O)[nH]c1=O [Carmofur] | 106% | 92% | 94.1% | 91.7% | 74.1% | 89.8% | 102% | 100% | 101% | 93.8% | 108% | 104% | 102% | 85.5% | 63.6% | 103% | 96.5% | 102% | 94.8% | 55.9% |  | > 10 µM |  |  | 1.5 | 0 | 3.7 | 3.1 | 104% | 99.4% | 102% | 102% | 67.1% |  | 1.4 |
| O=C(O)c1cc(/N=N/c2ccc(O)c(C(=O)O)c2)ccc1O [olsalazine] | 96.8% | 107% | 104% | 106% | 91.9% | 107% | 94.3% | 94.4% | 100% | 105% |  |  |  |  |  | 99% | 102% | 103% | 107% | 103% | > 10 µM | > 10 µM |  | > 10 µM | 0 | 0 |  | 0 |  |  |  |  |  |  |  |
| C[n+]1ccc(C(=O)NCc2ccccc2)cc1 [enisamium-iodide] | 98.8% | 103% | 87.7% | 94.5% | 99.1% | 96.5% | 100% | 91% | 108% | 102% | 88.7% | 96.3% | 99.7% | 79.7% | 81.7% | 104% | 103% | 98.9% | 103% | 103% | > 10 µM | > 10 µM | > 10 µM | > 10 µM | 0 | 0 | 2.8 | 0 |  |  |  |  |  |  |  |
| NS(=O)(=O)NCc1csc2ccccc12 | 84.1% | 95.7% | 96.2% | 94.3% | 87.3% | 90.7% | 93.4% | 94.8% | 103% | 95.4% | 109% | 97% | 111% | 98.7% | 112% | 102% | 106% | 96.4% | 104% | 99.8% | > 10 µM | > 10 µM | > 10 µM | > 10 µM | 0 | 0 | 0 | 0 |  |  |  |  |  |  |  |
| c1ccc2nc(C3=NCCN3)cnc2c1 [BU-239] | 97.1% | 101% | 102% | 102% | 100% | 101% | 106% | 95.4% | 112% | 99.8% | 99.2% | 104% | 112% | 104% | 101% |  |  |  |  |  | > 10 µM | > 10 µM | > 10 µM |  | 0 | 0 | 0 |  |  |  |  |  |  |  |  |
| CN(C)CCOc1cc(-c2cn[nH]c2)ccc1NC(=O)C1COc2ccccc2O1 (stereo unspecified) [SR-3677] | 100% | 95.6% | 105% | 105% | 94.9% | 102% | 93.4% | 99.4% | 148% | 134% | 99.3% | 108% | 101% | 86% | 88.4% | 99.8% | 101% | 95.6% | 98.6% | 79.6% | > 10 µM | > 10 µM | > 10 µM | > 10 µM | 0 | 0 | 1.1 | 0.8 | 96.5% | 95.9% | 95.7% | 81.4% | 68.8% |  | 3.3 |
| C[C@]12CC/C(=N\OCCN)C[C@@H]1C(=O)C[C@@H]1[C@@H]2CC[C@]2(C)C(=O)CC[C@@H]12 [istaroxime] | 97.6% | 93.1% | 95.7% | 88.4% | 71.7% | 94.5% | 96.5% | 93% | 91.1% | 95.5% | 110% | 102% | 88.6% | 99.7% | 87.2% | 98.8% | 96.9% | 101% | 95.7% | 51.4% |  | > 10 µM | > 10 µM |  | 2.1 | 0 | 0 | 3.2 | 106% | 105% | 98.3% | 97.9% | 61.1% |  | 2.2 |
| C/C=C/C[C@@H](C)C(=O)[C@H]1C(=O)N[C@@H](C(C)C)C(=O)N(C)CC(=O)N(C)[C@@H](CC(C)C)C(=O)N[C@@H](C(C)C)C(=O)N(C)[C@@H](CC(C)C)C(=O)N[C@@H](C)C(=O)N[C@H](C)C(=O)N(C)[C@@H](CC(C)C)C(=O)N(C)[C@@H](CC(C)C)C(=O)N(C)[C@@H](C(C)C)C(=O)N1C [valspodar] | 119% | 111% | 106% | 73.5% | 50.7% | 109% | 99.8% | 95.4% | 105% | 82.2% |  |  |  |  |  | 99.9% | 96.4% | 102% | 99.7% | 87.4% |  | > 10 µM |  | > 10 µM | 5.9 | 0.3 |  | 0.1 |  |  |  |  |  |  |  |
